Experimental findings from ChEMBL document CHEMBL1137067, “Alpha-1-C-alkyl-1-deoxynojirimycin derivatives as potent and selective inhibitors of intestinal isomaltase: remarkable effect of the alkyl chain length on glycosidase inhibitory profile” (Bioorg Med Chem Lett, 2004) are described below.

Each structure is given as a SMILES string.

Test [1] has as its target T1, Alpha-glucosidase (Oryza sativa Japonica Group, UniProt Q9LGC6).
T1 sequence (Q9LGC6 whole entry): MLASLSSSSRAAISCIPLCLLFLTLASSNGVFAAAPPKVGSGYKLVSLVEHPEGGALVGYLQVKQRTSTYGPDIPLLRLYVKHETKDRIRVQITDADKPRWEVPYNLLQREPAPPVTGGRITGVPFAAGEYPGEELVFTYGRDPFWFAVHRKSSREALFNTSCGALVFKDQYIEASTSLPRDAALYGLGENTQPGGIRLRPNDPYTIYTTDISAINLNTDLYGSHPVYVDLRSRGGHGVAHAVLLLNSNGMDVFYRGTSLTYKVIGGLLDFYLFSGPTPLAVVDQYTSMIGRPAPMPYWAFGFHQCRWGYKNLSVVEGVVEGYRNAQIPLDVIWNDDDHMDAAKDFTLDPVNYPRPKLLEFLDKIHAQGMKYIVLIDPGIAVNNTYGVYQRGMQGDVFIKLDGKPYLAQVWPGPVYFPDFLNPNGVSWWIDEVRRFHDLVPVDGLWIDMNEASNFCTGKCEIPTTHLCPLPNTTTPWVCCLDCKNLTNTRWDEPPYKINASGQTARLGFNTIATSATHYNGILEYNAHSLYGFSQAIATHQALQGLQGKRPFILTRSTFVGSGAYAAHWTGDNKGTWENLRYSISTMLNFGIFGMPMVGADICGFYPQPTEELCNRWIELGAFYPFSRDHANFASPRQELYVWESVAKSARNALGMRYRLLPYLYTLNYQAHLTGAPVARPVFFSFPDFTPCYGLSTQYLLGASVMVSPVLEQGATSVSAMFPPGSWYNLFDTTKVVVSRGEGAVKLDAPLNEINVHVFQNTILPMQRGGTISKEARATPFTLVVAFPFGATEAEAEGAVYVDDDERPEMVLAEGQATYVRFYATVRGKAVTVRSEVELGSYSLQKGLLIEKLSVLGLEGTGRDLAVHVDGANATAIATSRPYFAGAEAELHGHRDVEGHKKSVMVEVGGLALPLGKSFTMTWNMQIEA
Briefly: Inhibitory activity against alpha-Glucosidase from rice.

The target in test [2] is T2, Sucrase-isomaltase, intestinal (Rattus norvegicus, UniProt P23739). Briefly: Inhibition of rat intestinal maltase using disaccharide.
T2 sequence (P23739 1-1013 limits assumed): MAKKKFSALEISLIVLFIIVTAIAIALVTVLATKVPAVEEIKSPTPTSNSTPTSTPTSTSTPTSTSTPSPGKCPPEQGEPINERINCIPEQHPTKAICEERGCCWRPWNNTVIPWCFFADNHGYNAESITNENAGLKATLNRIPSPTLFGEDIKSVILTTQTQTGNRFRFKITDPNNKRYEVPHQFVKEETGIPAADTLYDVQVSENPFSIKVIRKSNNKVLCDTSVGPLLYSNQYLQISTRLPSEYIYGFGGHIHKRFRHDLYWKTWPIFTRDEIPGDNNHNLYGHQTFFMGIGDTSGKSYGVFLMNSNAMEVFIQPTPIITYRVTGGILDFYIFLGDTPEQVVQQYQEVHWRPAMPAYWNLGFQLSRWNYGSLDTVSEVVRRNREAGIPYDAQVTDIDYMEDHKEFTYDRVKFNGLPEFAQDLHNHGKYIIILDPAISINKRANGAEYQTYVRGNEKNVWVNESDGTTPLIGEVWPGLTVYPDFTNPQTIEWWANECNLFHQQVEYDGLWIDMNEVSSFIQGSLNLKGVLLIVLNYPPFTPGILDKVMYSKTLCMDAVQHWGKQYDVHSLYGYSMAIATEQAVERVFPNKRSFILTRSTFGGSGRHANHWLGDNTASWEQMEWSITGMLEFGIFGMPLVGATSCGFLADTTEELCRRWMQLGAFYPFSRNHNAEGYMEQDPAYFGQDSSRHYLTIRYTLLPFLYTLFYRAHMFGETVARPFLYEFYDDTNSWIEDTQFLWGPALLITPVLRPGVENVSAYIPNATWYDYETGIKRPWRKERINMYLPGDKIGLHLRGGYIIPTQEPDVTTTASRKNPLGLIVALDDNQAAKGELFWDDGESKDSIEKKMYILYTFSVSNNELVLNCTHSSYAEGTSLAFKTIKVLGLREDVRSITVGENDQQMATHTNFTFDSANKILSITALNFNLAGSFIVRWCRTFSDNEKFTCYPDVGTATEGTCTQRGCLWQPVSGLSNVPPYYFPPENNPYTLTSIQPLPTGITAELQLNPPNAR
T2 sequence (P23739 1014-1841 limits assumed): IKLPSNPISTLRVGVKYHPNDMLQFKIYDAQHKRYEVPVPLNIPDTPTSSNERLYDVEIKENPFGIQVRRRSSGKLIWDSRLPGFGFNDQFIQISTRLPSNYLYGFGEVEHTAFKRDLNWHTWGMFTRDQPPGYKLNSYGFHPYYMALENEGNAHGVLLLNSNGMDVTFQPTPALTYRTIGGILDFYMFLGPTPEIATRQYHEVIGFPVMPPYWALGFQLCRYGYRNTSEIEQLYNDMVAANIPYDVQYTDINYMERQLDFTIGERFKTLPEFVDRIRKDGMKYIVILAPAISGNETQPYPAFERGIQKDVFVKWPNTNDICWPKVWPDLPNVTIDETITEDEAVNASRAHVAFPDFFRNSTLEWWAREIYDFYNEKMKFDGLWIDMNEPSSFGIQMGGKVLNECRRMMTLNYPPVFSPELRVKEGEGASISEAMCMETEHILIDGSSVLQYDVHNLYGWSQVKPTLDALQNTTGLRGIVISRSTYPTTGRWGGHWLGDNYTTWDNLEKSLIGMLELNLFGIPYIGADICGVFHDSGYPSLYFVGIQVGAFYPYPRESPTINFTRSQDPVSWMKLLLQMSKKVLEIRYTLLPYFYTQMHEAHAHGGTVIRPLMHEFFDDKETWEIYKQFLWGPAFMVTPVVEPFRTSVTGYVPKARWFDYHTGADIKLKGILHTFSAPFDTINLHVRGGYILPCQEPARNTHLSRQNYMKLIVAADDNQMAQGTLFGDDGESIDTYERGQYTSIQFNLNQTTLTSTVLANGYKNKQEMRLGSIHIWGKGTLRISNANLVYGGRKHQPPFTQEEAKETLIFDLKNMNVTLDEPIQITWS
The test system of test [3] is Saccharomyces cerevisiae. The test can be described thus: Inhibitory activity against alpha-Glucosidase from Yeast at 1000 uM.
A short description of test [4]: Inhibitory activity against alpha-Glucosidase from Yeast. Also on record: species or system Saccharomyces cerevisiae.
Test [5] deals with T2, Sucrase-isomaltase, intestinal. The test can be described thus: Inhibition of rat intestinal sucrase using disaccharide.
Test [6] concerns the target Beta-glucosidase A (Caldicellulosiruptor saccharolyticus, UniProt P10482). Briefly: Inhibitory activity against beta-Glucosidase from Caldocellum saccharolyticum.
Test [7] concerns the target T2, Sucrase-isomaltase, intestinal. The test can be described thus: Inhibition of rat intestinal isomaltase using disaccharide.
Test [8] has as its target Beta-glucosidase A (Caldicellulosiruptor saccharolyticus) (UniProt P10482). Briefly: Inhibitory activity against beta-Glucosidase from Caldocellum saccharolyticum at 1000 uM.

Beta-glucosidase A (Caldicellulosiruptor saccharolyticus), sequence (P10482 whole entry): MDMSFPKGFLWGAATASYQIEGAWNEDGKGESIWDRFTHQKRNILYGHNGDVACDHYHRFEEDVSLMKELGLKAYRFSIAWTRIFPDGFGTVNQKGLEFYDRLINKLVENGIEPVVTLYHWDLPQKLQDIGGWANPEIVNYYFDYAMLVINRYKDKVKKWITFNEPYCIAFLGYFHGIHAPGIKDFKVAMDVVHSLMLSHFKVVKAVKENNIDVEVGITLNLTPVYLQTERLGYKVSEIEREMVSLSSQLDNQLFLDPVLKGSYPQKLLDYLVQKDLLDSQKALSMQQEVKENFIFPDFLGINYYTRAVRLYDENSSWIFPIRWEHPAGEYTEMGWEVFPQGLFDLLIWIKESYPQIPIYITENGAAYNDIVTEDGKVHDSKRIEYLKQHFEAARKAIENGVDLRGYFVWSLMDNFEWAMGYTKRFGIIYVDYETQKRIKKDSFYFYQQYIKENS
Beta-glucosidase A, sequence (P10482 whole entry): as above

On to `CCCCCCCCCN1CC(O)C(O)C(O)C1CO` (stereo not given), for which the results for the IC50 in test [1] and in test [2] were 80 nM and 1300 nM, respectively. Further, in test [3], the inhibition – broadly, the relative decrease from the control value, in per cent – is < 50%.

`CCCCCCCCCC1NC(CO)C(O)C(O)C1O` (stereo not given): the IC50 (commonly the point on the concentration scale where inhibition reaches its midpoint) in test [1] was found to be 1500 nM; in test [4], 56000 nM; in test [2], 4000 nM; in test [5], 2500 nM; in test [6], 80000 nM; in test [7], 3.5 nM.

On to `CCCCCCCCC1NC(CO)C(O)C(O)C1O` (stereo not given), for which the IC50 in test [1] is 590 nM; in test [4], 25000 nM; in test [2], 1900 nM; in test [5] it was 1500 nM; in test [6], 110000 nM; in test [7] it was 90 nM.

Turning to `CCCCCCCCN1CC(O)C(O)C(O)C1CO` (stereo not given), the concentration for half-maximal inhibition (IC50) in test [1] is 80 nM; in test [2], 1500 nM; in test [5] it was 660 nM; in test [6], 160000 nM; in test [7], 280 nM. In addition, the inhibition in test [3] was < 50%.

Turning to `CCCN1CC(O)C(O)C(O)C1CO` (stereo not given), the 50% inhibitory concentration (IC50) in test [1] came to 2000 nM; in test [2] it was 7000 nM; in test [5] it was 2000 nM; in test [6] it was 100000 nM; in test [7], 1400 nM. The inhibition in test [3] is < 50%.

Turning to `CCCCCCC1NC(CO)C(O)C(O)C1O` (stereo not given), the IC50 worked out at 800 nM in test [1]; 52000 nM in test [4]; 3500 nM in test [2]; 1200 nM in test [5]; 310 nM in test [7]. Moreover, the inhibition in test [8] is < 50%.

Take `CCCC1NC(CO)C(O)C(O)C1O` (stereo not given): the IC50 in test [1] was 15000 nM; in test [4], 630000 nM; in test [2], 43000 nM; in test [5], 39000 nM; in test [7], 530 nM.

On to `CCCCCCN1CC(O)C(O)C(O)C1CO` (stereo not given), for which the IC50 was determined as 700 nM in test [1]; 3700 nM in test [2]; 450 nM in test [5]; 450000 nM in test [6]; 450 nM in test [7]. Moreover, the inhibition in test [3] was < 50%.

As for `OC[C@H]1NC[C@H](O)[C@@H](O)[C@@H]1O` [DUVOGLUSTAT], half-maximal inhibition in test [4] (IC50) required 190000 nM.

Molecule `CCCCN1C[C@H](O)[C@@H](O)[C@H](O)[C@H]1CO` registered an IC50 in test [1] of 420 nM. Besides, the inhibition in test [3] and in test [8] was < 50% in each case.

Take `CCCC[C@H]1N[C@@H](CO)[C@@H](O)[C@H](O)[C@@H]1O`: the IC50 turned out to be 11000 nM in test [1]; 465000 nM in test [4]; 12000 nM in test [2]; 3600 nM in test [5]; 150 nM in test [7]. The inhibition in test [8] was < 50%.

As to `CCCC[C@@H]1N[C@@H](CO)[C@@H](O)[C@H](O)[C@@H]1O`, the IC50 turned out to be 61000 nM in test [1], 210000 nM in test [2], 155000 nM in test [5] and 115000 nM in test [7]. Besides, the inhibition in test [3] and in test [8] was < 50% in each case.
